# Measurements published in the supplement of paper PMC11451515.
# Test system: P12-Ichikawa
# Test: cell viability relative to DMSO control; higher = less cytotoxic
# Details: 48 h
# Summary of the method: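 NOMO1 or SEM (500 cells/well) or P12-Ichikawa (1000 cells/well) leukemia cells were adapted for at least four passages in each medium. They were seeded in 1536-well plates (5 μl) and pin-dosed with library compounds in DMSO over an 11-point threefold series, 47 μM to 0.79 nM. CellTiter-Glo One luminescence was read after 48 h at 37°C. Viability is the per-plate percentage relative to DMSO wells, with cell-free wells as background.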
# [1] = HPLM + 10% dialyzed FBS, 0.000781 µM
# [2] = HPLM + 10% dialyzed FBS, 0.00234 µM
# [3] = HPLM + 10% dialyzed FBS, 0.00702 µM
# [4] = HPLM + 10% dialyzed FBS, 0.0211 µM
# [5] = HPLM + 10% dialyzed FBS, 0.0632 µM
# [6] = HPLM + 10% dialyzed FBS, 0.19 µM
# [7] = HPLM + 10% dialyzed FBS, 0.569 µM
# [8] = HPLM + 10% dialyzed FBS, 1.71 µM
# [9] = HPLM + 10% dialyzed FBS, 5.12 µM
# [10] = HPLM + 10% dialyzed FBS, 15.4 µM
# [11] = HPLM + 10% dialyzed FBS, 46.1 µM
# [12] = RPMI 5 mM glucose + 10% FBS, 0.000781 µM
# [13] = RPMI 5 mM glucose + 10% FBS, 0.00234 µM
# [14] = RPMI 5 mM glucose + 10% FBS, 0.00702 µM
# [15] = RPMI 5 mM glucose + 10% FBS, 0.0211 µM
# [16] = RPMI 5 mM glucose + 10% FBS, 0.0632 µM
# [17] = RPMI 5 mM glucose + 10% FBS, 0.19 µM
# [18] = RPMI 5 mM glucose + 10% FBS, 0.569 µM
# [19] = RPMI 5 mM glucose + 10% FBS, 1.71 µM
# [20] = RPMI 5 mM glucose + 10% FBS, 5.12 µM
# [21] = RPMI 5 mM glucose + 10% FBS, 15.4 µM
# [22] = RPMI 5 mM glucose + 10% FBS, 46.1 µM
# [23] = RPMI 5 mM glucose + 10% dialyzed FBS, 0.000781 µM
# [24] = RPMI 5 mM glucose + 10% dialyzed FBS, 0.00234 µM
# [25] = RPMI 5 mM glucose + 10% dialyzed FBS, 0.00702 µM
# [26] = RPMI 5 mM glucose + 10% dialyzed FBS, 0.0211 µM
# [27] = RPMI 5 mM glucose + 10% dialyzed FBS, 0.0632 µM
# [28] = RPMI 5 mM glucose + 10% dialyzed FBS, 0.19 µM
# [29] = RPMI 5 mM glucose + 10% dialyzed FBS, 0.569 µM
# [30] = RPMI 5 mM glucose + 10% dialyzed FBS, 1.71 µM
# [31] = RPMI 5 mM glucose + 10% dialyzed FBS, 5.12 µM
# [32] = RPMI 5 mM glucose + 10% dialyzed FBS, 15.4 µM
# [33] = RPMI 5 mM glucose + 10% dialyzed FBS, 46.1 µM
compound,measurement,setting,value
CCOC(=O)/C=C/[C@H](C[C@@H]1CCNC1=O)NC(=O)[C@@H](CC(=O)[C@@H](NC(=O)c1cc(C)on1)C(C)C)Cc1ccc(F)cc1,cell viability,[1],122%
same,cell viability,[2],115%
same,cell viability,[3],121%
same,cell viability,[4],87.7%
same,cell viability,[5],130%
same,cell viability,[6],127%
same,cell viability,[7],126%
same,cell viability,[8],117%
same,cell viability,[9],121%
same,cell viability,[10],122%
same,cell viability,[11],117%
same,cell viability,[12],114%
same,cell viability,[13],122%
same,cell viability,[14],130%
same,cell viability,[15],76.8%
same,cell viability,[16],135%
same,cell viability,[17],135%
same,cell viability,[18],134%
same,cell viability,[19],136%
same,cell viability,[20],121%
same,cell viability,[21],120%
same,cell viability,[22],119%
same,cell viability,[23],112%
same,cell viability,[24],106%
same,cell viability,[25],118%
same,cell viability,[26],80.2%
same,cell viability,[27],111%
same,cell viability,[28],119%
same,cell viability,[29],115%
same,cell viability,[30],128%
same,cell viability,[31],119%
same,cell viability,[32],124%
same,cell viability,[33],118%
NC(=O)c1ncn([C@@H]2O[C@H](CO)[C@@H](O)[C@H]2O)c1O,cell viability,[12],129%
same,cell viability,[13],123%
same,cell viability,[14],119%
same,cell viability,[15],130%
same,cell viability,[16],124%
same,cell viability,[17],126%
same,cell viability,[18],133%
same,cell viability,[19],123%
same,cell viability,[20],111%
same,cell viability,[21],117%
same,cell viability,[22],108%
same,cell viability,[23],118%
same,cell viability,[24],126%
same,cell viability,[25],113%
same,cell viability,[26],123%
same,cell viability,[27],122%
same,cell viability,[28],121%
same,cell viability,[29],123%
same,cell viability,[30],122%
same,cell viability,[31],109%
same,cell viability,[32],110%
same,cell viability,[33],104%
C=CCc1ccc(O)c(-c2ccc(O)c(CC=C)c2)c1,cell viability,[1],112%
same,cell viability,[2],113%
same,cell viability,[4],113%
same,cell viability,[5],119%
same,cell viability,[6],28.9%
same,cell viability,[7],13.7%
same,cell viability,[9],9.66%
same,cell viability,[10],11.3%
same,cell viability,[11],18.2%
same,cell viability,[12],109%
same,cell viability,[13],110%
same,cell viability,[14],110%
same,cell viability,[15],113%
same,cell viability,[16],120%
same,cell viability,[17],120%
same,cell viability,[18],118%
same,cell viability,[19],17.5%
same,cell viability,[20],14.9%
same,cell viability,[21],13.7%
same,cell viability,[22],11%
same,cell viability,[23],105%
same,cell viability,[24],116%
same,cell viability,[25],113%
same,cell viability,[26],115%
same,cell viability,[27],122%
same,cell viability,[28],113%
same,cell viability,[29],63.9%
same,cell viability,[30],25.6%
same,cell viability,[31],18.4%
same,cell viability,[32],21.3%
same,cell viability,[33],21.2%
CC(NCCc1ccc(O)cc1)C(O)c1ccc(O)cc1 (centres undefined),cell viability,[1],106%
same,cell viability,[2],109%
same,cell viability,[3],116%
same,cell viability,[4],113%
same,cell viability,[5],117%
same,cell viability,[6],112%
same,cell viability,[7],111%
same,cell viability,[8],103%
same,cell viability,[9],109%
same,cell viability,[10],106%
same,cell viability,[11],100%
same,cell viability,[12],114%
same,cell viability,[13],120%
same,cell viability,[14],122%
same,cell viability,[15],115%
same,cell viability,[16],110%
same,cell viability,[17],114%
same,cell viability,[18],125%
same,cell viability,[19],116%
same,cell viability,[20],120%
same,cell viability,[21],99%
same,cell viability,[22],111%
same,cell viability,[23],107%
same,cell viability,[24],105%
same,cell viability,[25],113%
same,cell viability,[26],109%
same,cell viability,[27],115%
same,cell viability,[28],111%
same,cell viability,[29],107%
same,cell viability,[30],105%
same,cell viability,[31],102%
same,cell viability,[32],97%
same,cell viability,[33],90.6%
COc1cc(C)c(Sc2cnc(NC(=O)c3ccc(CNC(C)C(C)C)cc3)s2)cc1C(=O)N1CCN(C(C)=O)CC1 (centres undefined),cell viability,[1],118%
same,cell viability,[2],125%
same,cell viability,[3],119%
same,cell viability,[4],129%
same,cell viability,[5],119%
same,cell viability,[6],118%
same,cell viability,[7],117%
same,cell viability,[8],107%
same,cell viability,[9],103%
same,cell viability,[10],90.1%
same,cell viability,[11],109%
Cc1ncc([N+](=O)[O-])n1CC(C)O (centres undefined),cell viability,[1],105%
same,cell viability,[2],116%
same,cell viability,[3],111%
same,cell viability,[4],110%
same,cell viability,[5],105%
same,cell viability,[6],117%
same,cell viability,[7],114%
same,cell viability,[8],111%
same,cell viability,[9],116%
same,cell viability,[10],125%
same,cell viability,[11],103%
same,cell viability,[12],94.3%
same,cell viability,[13],109%
same,cell viability,[14],101%
same,cell viability,[15],104%
same,cell viability,[16],90.4%
same,cell viability,[17],113%
same,cell viability,[18],105%
same,cell viability,[19],115%
same,cell viability,[20],104%
same,cell viability,[21],106%
same,cell viability,[22],102%
same,cell viability,[23],102%
same,cell viability,[24],112%
same,cell viability,[25],106%
same,cell viability,[26],104%
same,cell viability,[27],95.2%
same,cell viability,[28],112%
same,cell viability,[29],117%
same,cell viability,[30],113%
same,cell viability,[31],111%
same,cell viability,[32],106%
same,cell viability,[33],106%
C1CCN2C[C@H]3C[C@H](\C=C/4CCCN[C@@H]34)[C@H]2C1,cell viability,[1],105%
same,cell viability,[2],108%
same,cell viability,[3],99.3%
same,cell viability,[4],103%
same,cell viability,[5],104%
same,cell viability,[6],110%
same,cell viability,[7],110%
same,cell viability,[8],115%
same,cell viability,[9],111%
same,cell viability,[10],108%
same,cell viability,[11],11.1%
same,cell viability,[12],110%
same,cell viability,[13],115%
same,cell viability,[14],121%
same,cell viability,[15],127%
same,cell viability,[16],117%
same,cell viability,[17],123%
same,cell viability,[18],122%
same,cell viability,[19],116%
same,cell viability,[20],115%
same,cell viability,[21],134%
same,cell viability,[22],20.8%
same,cell viability,[23],113%
same,cell viability,[24],104%
same,cell viability,[25],101%
same,cell viability,[26],112%
same,cell viability,[27],112%
same,cell viability,[28],109%
same,cell viability,[29],108%
same,cell viability,[30],97.6%
same,cell viability,[31],112%
same,cell viability,[32],108%
same,cell viability,[33],19.2%
N#C/N=C(\NCCCCCCOc1ccc(Cl)cc1)Nc1ccncc1,cell viability,[1],92.5%
same,cell viability,[2],30.8%
same,cell viability,[3],7.9%
same,cell viability,[4],7.51%
same,cell viability,[5],7.45%
same,cell viability,[6],6.55%
same,cell viability,[7],6.06%
same,cell viability,[8],4.77%
same,cell viability,[9],5.75%
same,cell viability,[10],5.32%
same,cell viability,[11],2.54%
same,cell viability,[12],101%
same,cell viability,[13],66.3%
same,cell viability,[14],8.62%
same,cell viability,[15],9.03%
same,cell viability,[16],8.69%
same,cell viability,[17],8.93%
same,cell viability,[18],8.18%
same,cell viability,[19],6.73%
same,cell viability,[20],5.76%
same,cell viability,[21],5.53%
same,cell viability,[22],3.94%
same,cell viability,[23],117%
same,cell viability,[24],45.9%
same,cell viability,[25],8.98%
same,cell viability,[26],8.5%
same,cell viability,[27],8.43%
same,cell viability,[28],8.45%
same,cell viability,[29],8.57%
same,cell viability,[30],6.65%
same,cell viability,[31],6.26%
same,cell viability,[32],5.72%
same,cell viability,[33],2.79%
